Literature values as cited in article PMC3606899 (Journal of molecular medicine (Berlin, Germany), 2012).
pIC50: −log10 of the molar value.

Target: PHD2 (Homo sapiens, UniProt Q9GZT9)
Assay: PHD inhibitor screen, IC50
Format: biochemical

PHD2, sequence (Q9GZT9 2-426): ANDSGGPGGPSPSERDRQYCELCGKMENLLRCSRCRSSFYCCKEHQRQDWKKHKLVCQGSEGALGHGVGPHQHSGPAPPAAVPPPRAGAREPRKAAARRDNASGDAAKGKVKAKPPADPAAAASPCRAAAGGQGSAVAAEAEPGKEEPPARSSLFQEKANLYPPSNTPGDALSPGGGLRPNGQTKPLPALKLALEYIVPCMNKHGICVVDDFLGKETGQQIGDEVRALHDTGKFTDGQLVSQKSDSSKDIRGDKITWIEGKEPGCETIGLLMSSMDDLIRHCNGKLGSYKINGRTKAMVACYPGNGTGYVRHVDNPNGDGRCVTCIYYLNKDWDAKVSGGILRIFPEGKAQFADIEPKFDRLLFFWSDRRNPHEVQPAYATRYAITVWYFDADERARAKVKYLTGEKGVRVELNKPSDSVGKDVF

For AKB-4924, the pIC50 is listed as 4.85.
